# Earlier results as cited in PMC4360375 (Journal of Medicinal Chemistry, 2015).
# Test system: GABA uptake, rat synaptosome
# Conditions: literature data set; ref 10.1021/jm980492e; cited from earlier work
row,SMILES,pIC50
1,"O=C(O)C1=CCCN(CCOCCC(c2ccccc2)c2ccccc2)C1 [An_1999/4_30, O(CCC(c1ccccc1)c1ccccc1)CCN1CC(=CCC1)C(O)=O]",7.319
2,"O=C(O)[C@@H]1CCCN(CCON=C(c2ccccc2)c2ccccc2)C1 [An_1999/4_(R)-7, O(\N=C(\c1ccccc1)/c1ccccc1)CCN1C[C@@H](CCC1)C(O)=O]",6.863
3,"O=C(O)[C@@H]1CCCN(CCCN(c2ccccc2)c2ccccc2)C1 [An_1999/4_(R)-10, OC(=O)[C@@H]1CCCN(C1)CCCN(c1ccccc1)c1ccccc1]",5.046
4,"O=C(O)[C@@H]1CCCN(CCCCN(c2ccccc2)c2ccccc2)C1 [An_1999/4_(R)-11, OC(=O)[C@@H]1CCCN(C1)CCCCN(c1ccccc1)c1ccccc1]",5.585
5,"O=C(O)[C@@H]1CCCN(CCCCCN(c2ccccc2)c2ccccc2)C1 [An_1999/4_(R)-12, OC(=O)[C@@H]1CCCN(C1)CCCCCN(c1ccccc1)c1ccccc1]",5.86
6,"O=C(O)[C@@H]1CCCN(CCCCCCN(c2ccccc2)c2ccccc2)C1 [An_1999/4_(R)-13, OC(=O)[C@@H]1CCCN(C1)CCCCCCN(c1ccccc1)c1ccccc1]",6.18
7,O=C(O)[C@@H]1CCCN(CCCCCCCN(c2ccccc2)c2ccccc2)C1 [An_1999/4_(R)-14],6.638
8,O=C(O)[C@@H]1CCCN(CCCCCCCCN(c2ccccc2)c2ccccc2)C1 [An_1999/4_(R)-15],5.889
9,O=C(O)[C@@H]1CCCN(CCCCCCCC(=O)N(c2ccccc2)c2ccccc2)C1 [An_1999/4_(R)-16],5.046
10,"O=C(O)[C@@H]1CCCN(CCOCCN(c2ccccc2)c2ccccc2)C1 [An_1999/4_(R)-17, O(CCN1C[C@@H](CCC1)C(O)=O)CCN(c1ccccc1)c1ccccc1]",7.046
11,"O=C(O)[C@@H]1CCCN(CCCCOCCN(c2ccccc2)c2ccccc2)C1 [An_1999/4_(R)-18, O(CCCCN1C[C@@H](CCC1)C(O)=O)CCN(c1ccccc1)c1ccccc1]",6.523
12,"O=C(O)[C@@H]1CCCN(CCCOCCCN(c2ccccc2)c2ccccc2)C1 [An_1999/4_(R)-19, O(CCCN1C[C@@H](CCC1)C(O)=O)CCCN(c1ccccc1)c1ccccc1]",5.523
13,"O=C(O)[C@@H]1CCCN(CCOCCOCCN(c2ccccc2)c2ccccc2)C1 [An_1999/4_(R)-20, O(CCN1C[C@@H](CCC1)C(O)=O)CCOCCN(c1ccccc1)c1ccccc1]",5.046
14,"O=C(O)[C@@H]1CCCN(CCOCC=C(c2ccccc2)c2ccccc2)C1 [An_1999/4_(R)-21, O(CCN1C[C@@H](CCC1)C(O)=O)C\C=C(\c1ccccc1)/c1ccccc1]",6.585
15,"Cc1ccccc1/C(=C/COCCN1CCC[C@@H](C(=O)O)C1)c1ccccc1 [An_1999/4_(R)-22, O(CCN1C[C@@H](CCC1)C(O)=O)C\C=C(\c1ccccc1C)/c1ccccc1]",6.62
16,"Cc1ccccc1C(=CCOCCN1CCC[C@@H](C(=O)O)C1)c1ccccc1C [An_1999/4_(R)-23, O(CCN1C[C@@H](CCC1)C(O)=O)C\C=C(\c1ccccc1C)/c1ccccc1C]",6.959
17,"Cc1ccccc1C(=CCOCCCN1CCC[C@@H](C(=O)O)C1)c1ccccc1C [An_1999/4_(R)-24, O(CCCN1C[C@@H](CCC1)C(O)=O)C\C=C(\c1ccccc1C)/c1ccccc1C]",7.097
18,"O=C(O)[C@@H]1CCCN(CCOCC=C(c2ccc(Cl)cc2)c2ccc(Cl)cc2)C1 [An_1999/4_(R)-25, Clc1ccc(cc1)\C(=C\COCCN1C[C@@H](CCC1)C(O)=O)\c1ccc(Cl)cc1]",6.018
19,"O=C(O)[C@@H]1CCCN(CCOCC=C(c2ccc(F)cc2)c2ccc(F)cc2)C1 [An_1999/4_(R)-26, Fc1ccc(cc1)\C(=C\COCCN1C[C@@H](CCC1)C(O)=O)\c1ccc(F)cc1]",5.836
20,"O=C(O)[C@@H]1CCCN(CCCCC=C(c2ccccc2)c2ccccc2)C1 [An_1999/4_(R)-27, OC(=O)[C@@H]1CCCN(C1)CCCC\C=C(\c1ccccc1)/c1ccccc1]",5.646
21,"O=C(O)[C@@H]1CCCN(CCCCCCC=C(c2ccccc2)c2ccccc2)C1 [An_1999/4_(R)-28, OC(=O)[C@@H]1CCCN(C1)CCCCCC\C=C(\c1ccccc1)/c1ccccc1]",5.866
22,"Cc1ccccc1[C@H](CCOCCN1CCC[C@@H](C(=O)O)C1)c1ccccc1 [An_1999/4_(R)-31, O(CC[C@@H](c1ccccc1C)c1ccccc1)CCN1C[C@@H](CCC1)C(O)=O]",7.066
23,"Cc1ccccc1C(CCOCCN1CCC[C@@H](C(=O)O)C1)c1ccccc1C [An_1999/4_(R)-32, O(CCC(c1ccccc1C)c1ccccc1C)CCN1C[C@@H](CCC1)C(O)=O]",6.444
24,"O=C(O)[C@@H]1CCCN(CCOCCC(c2ccc(F)cc2)c2ccc(F)cc2)C1 [An_1999/4_(R)-33, Fc1ccc(cc1)C(CCOCCN1C[C@@H](CCC1)C(O)=O)c1ccc(F)cc1]",6.167
25,"CN(CCC(c1ccccc1)c1ccccc1)CCN1CCC[C@@H](C(=O)O)C1 [An_1999/4_(R)-35, OC(=O)[C@@H]1CCCN(C1)CCN(CCC(c1ccccc1)c1ccccc1)C]",5.244

# Same assay, conditions: literature data set; ref 10.1021/jm981027k; cited from earlier work
row,SMILES,pIC50
1,"O=C(O)[C@@H]1CCCN(CCO/C=C(/c2ccc(F)cc2F)c2cc(F)ccc2F)C1 [An_1999/3_106, Fc1cc(F)ccc1/C(=C/OCCN1C[C@@H](CCC1)C(O)=O)/c1cc(F)ccc1F]",7.301
2,"O=C(O)[C@@H]1CCCN(CCOC=C(c2cc(F)ccc2F)c2cc(F)ccc2F)C1 [An_1999/3_107, Fc1ccc(F)cc1\C(=C\OCCN1C[C@@H](CCC1)C(O)=O)\c1cc(F)ccc1F]",6.745
3,"O=C(O)[C@@H]1CCCN(CCO/C=C(/c2ccccc2)c2ccccc2Cl)C1 [An_1999/3_108, Clc1ccccc1\C(=C/OCCN1C[C@@H](CCC1)C(O)=O)\c1ccccc1]",7.301
4,"O=C(O)[C@@H]1CCCN(CCOC=C(c2ccccc2Cl)c2ccccc2Cl)C1 [An_1999/3_109, Clc1ccccc1\C(=C\OCCN1C[C@@H](CCC1)C(O)=O)\c1ccccc1Cl]",7.301
5,"O=C(O)C1=CCCN(CCOC=C(c2ccccc2Cl)c2ccccc2Cl)C1 [An_1999/3_110, Clc1ccccc1\C(=C\OCCN1CC(=CCC1)C(O)=O)\c1ccccc1Cl]",7.921
6,"O=C(O)[C@@H]1CCCN(CCOC=C(c2ccc(F)cc2Cl)c2ccc(F)cc2Cl)C1 [An_1999/3_111, Clc1cc(F)ccc1\C(=C\OCCN1C[C@@H](CCC1)C(O)=O)\c1ccc(F)cc1Cl]",7.18
7,"O=C(O)[C@@H]1CCCN(CCOC=C(c2cccc(Cl)c2)c2cccc(Cl)c2)C1 [An_1999/3_112, Clc1cc(ccc1)\C(=C\OCCN1C[C@@H](CCC1)C(O)=O)\c1cc(Cl)ccc1]",6.699

# Same assay, conditions: literature data set; ref 10.1021/jm990513k; cited from earlier work
row,SMILES,pIC50
1,"O=C(O)[C@@H]1CCCN(CCON=C2c3ccccc3CCc3ccccc32)C1 [An_2001/5_16, O(\N=C/1\c2c(CCc3c\1cccc3)cccc2)CCN1C[C@@H](CCC1)C(O)=O]",5.936
2,"O=C(O)[C@@H]1CCCN(CCON=C2c3cc(Cl)ccc3CCc3ccc(Cl)cc32)C1 [An_2001/5_17, Clc1cc\2c(CCc3c(cc(Cl)cc3)/C/2=N\OCCN2C[C@@H](CCC2)C(O)=O)cc1]",5.259
3,"O=C(O)[C@@H]1CCCN(CCOC=C2c3ccccc3CCc3ccccc32)C1 [An_2001/5_18, O(\C=C/1\c2c(CCc3c\1cccc3)cccc2)CCN1C[C@@H](CCC1)C(O)=O]",5.662
4,"O=C(O)[C@@H]1CCCN(CCOCCn2c3ccccc3c3ccccc32)C1 [An_2001/5_19, O(CCN1C[C@@H](CCC1)C(O)=O)CCn1c2c(c3c1cccc3)cccc2]",4.398
5,"O=C(O)[C@@H]1CCCN(CCOCCN2c3ccccc3Oc3ccccc32)C1 [An_2001/5_20, O1c2c(N(c3c1cccc3)CCOCCN1C[C@@H](CCC1)C(O)=O)cccc2]",5.836
6,"O=C(O)[C@@H]1CCCN(CCOCCN2c3ccccc3Sc3ccccc32)C1 [An_2001/5_21, S1c2c(N(c3c1cccc3)CCOCCN1C[C@@H](CCC1)C(O)=O)cccc2]",6.509
7,"O=C(O)[C@H]1CCCN(CCOCCN2c3ccccc3Sc3ccc(C(F)(F)F)cc32)C1 [An_2001/5_22, S1c2c(N(c3c1cccc3)CCOCCN1C[C@H](CCC1)C(O)=O)cc(cc2)C(F)(F)F]",6.979
8,"O=C(O)[C@@H]1CCCN(CCOCCN2c3ccccc3CCc3ccccc32)C1 [An_2001/5_23, O(CCN1C[C@@H](CCC1)C(O)=O)CCN1c2c(CCc3c1cccc3)cccc2]",6.745
9,"O=C(O)C1=CCCN(CCOCCN2c3ccccc3CCc3ccccc32)C1 [An_2001/5_24, O(CCN1CC(=CCC1)C(O)=O)CCN1c2c(CCc3c1cccc3)cccc2]",6.194
10,"O=C(O)[C@@H]1CCCN(CCOCCN2c3ccccc3C=Cc3ccccc32)C1 [An_2001/5_26, O(CCN1C[C@@H](CCC1)C(O)=O)CCN1c2c(C=Cc3c1cccc3)cccc2]",6.187
11,"O=C(O)[C@@H]1CCCN(CCOCCN2c3ccccc3CCc3ccc(Cl)cc32)C1 [An_2001/5_27, Clc1cc2N(c3c(CCc2cc1)cccc3)CCOCCN1C[C@@H](CCC1)C(O)=O]",7.155
12,"O=C(O)[C@@H]1CCCN(CCOCCN2c3cc(Cl)ccc3CCc3ccc(Cl)cc32)C1 [An_2001/5_28, Clc1cc2N(c3cc(Cl)ccc3CCc2cc1)CCOCCN1C[C@@H](CCC1)C(O)=O]",7.155
13,"O=C(O)[C@@H]1CCCN(CCOCCN2c3ccccc3CCc3ccc(F)cc32)C1 [An_2001/5_29, Fc1cc2N(c3c(CCc2cc1)cccc3)CCOCCN1C[C@@H](CCC1)C(O)=O]",6.577
14,"O=C(O)[C@@H]1CCCN(CCOCCN2c3ccc(F)cc3CCc3cc(F)ccc32)C1 [An_2001/5_30, Fc1cc2CCc3cc(F)ccc3N(c2cc1)CCOCCN1C[C@@H](CCC1)C(O)=O]",6.602
15,"O=C(O)[C@@H]1CCCN(CCOCCN2c3ccc(Br)cc3CCc3cc(Br)ccc32)C1 [An_2001/5_31, Brc1cc2CCc3cc(Br)ccc3N(c2cc1)CCOCCN1C[C@@H](CCC1)C(O)=O]",5.987
16,"O=C(O)[C@@H]1CCCN(CCOCCCN2c3ccccc3CCc3ccccc32)C1 [An_2001/5_32, O(CCCN1c2c(CCc3c1cccc3)cccc2)CCN1C[C@@H](CCC1)C(O)=O]",6.155
17,"O=C(O)[C@@H]1CCCN(CCOCCN2c3ccccc3CCCc3ccccc32)C1 [An_2001/5_33, O(CCN1C[C@@H](CCC1)C(O)=O)CCN1c2c(CCCc3c1cccc3)cccc2]",6.071
18,"O=C(O)[C@@H]1CCCN(CCOCC=C2c3ccccc3CCc3ccccc32)C1 [An_2001/5_34, O(CCN1C[C@@H](CCC1)C(O)=O)C\C=C/1\c2c(CCc3c\1cccc3)cccc2]",6.114
